Laboratory results published in ChEMBL document CHEMBL5143743, “Novel Thioxothiazolo[3,4-a]quinazolin-5(4H)-one Derivatives as BKCa Channel Activators for Urinary Incontinence” (ACS Med Chem Lett, 2022).
One block for each compound: values may come before it. Calls of active or inactive are those of the source. The rule behind the calls is not given here.

Columns and labels:
[1] = (§1) Activation of human Slo G803D/N806K mutant expressed in human AD293 cells measured at 2 secs interval for 120 secs by FluxOR based fluorescence assay; type: cell-based
[2] = Stability in human liver microsomes assessed as parent compound remaining at 1 uM measured after 30 mins in presence of NADPH regeneration system by LC-MS/MS analysis; type: ADME, Microsome; conditions: read-out: Stability
AD293 [3] = test: Activation of human Slo G803D/N806K mutant expressed in human AD293 cells assessed as initial velocity of channel activation at 6 uM measured at 2 secs interval for 4 secs by FluxOR based fluorescence assay; type: cell-based; conditions: filed as activator, time 4.0 sec
AD293 [4] = test: Activation of human Slo G803D/N806K mutant expressed in human AD293 cells assessed as increase in channel activity by measuring change in relative fluorescence unit at 6 uM measured at 2 secs interval for 80 secs by FluxOR based fluorescence assay; type: cell-based; conditions: filed as activator, time 80.0 sec
[5] = Volume of distribution at steady state in Sprague-Dawley rat at 5 mg/kg, iv by LC-MS analysis; type: ADME, organism-based; conditions: in vivo, read-out: Vdss
[6] = Clearance in Sprague-Dawley rat at 5 mg/kg, iv by LC-MS analysis; type: ADME, organism-based; conditions: in vivo
AD293 [7] = test: Activation of human Slo G803D/N806K mutant expressed in human AD293 cells assessed as increase in initial velocity at 1 uM measured at 2 secs interval for 120 secs by FluxOR based fluorescence assay; type: cell-based; conditions: filed as activator, time 120.0 sec
[8] = AUC (0 to 8 hrs) in Sprague-Dawley rat at 5 mg/kg, iv by LC-MS analysis; type: ADME, organism-based; parameters: time < 8 hr, dose 5 mg/kg, route iv; conditions: in vivo
[9] = molecular target: Calcium-activated potassium channel subunit alpha-1 (Rattus norvegicus) (UniProt Q62976); test: Activation of rat Slo expressed in Xenopus laevis oocytes assessed as increase in maximum conductance at 10 uM with 100 mV holding potential by patch-clamp electrophysiological method relative to control; type: cell-based; conditions: Oocyte, filed as activator
[10] = AUC (infinity) in Sprague-Dawley rat at 10 mg/kg, po by LC-MS analysis; type: ADME, organism-based; parameters: time infinity, dose 10 mg/kg, route po; conditions: in vivo
[11] = molecular target: Calcium-activated potassium channel subunit alpha-1 (Rattus norvegicus) (UniProt Q62976); test: Activation of rat Slo expressed in Xenopus laevis oocytes assessed as intracellular shift in voltage at half activation at 10 uM with 100 mV holding potential by patch-clamp electrophysiological method; type: cell-based; conditions: Oocyte, filed as activator
Rattus norvegicus [12] = test: Inhibition of overactive bladder activity in spontaneously hypertensive rat assessed as reduction in voiding frequency at 10 mg/kg, po measured after 3 hrs; type: functional, organism-based
AD293 [13] = test: Activation of human Slo G803D/N806K mutant expressed in human AD293 cells assessed as increase in initial velocity at 5 uM measured at 2 secs interval for 4 secs by FluxOR based fluorescence assay; type: cell-based; conditions: filed as activator, time 4.0 sec
[14] = molecular target: Calcium-activated potassium channel subunit alpha-1 (Rattus norvegicus) (UniProt Q62976); test: Activation of rat Slo expressed in Xenopus laevis oocytes assessed as increase in intracellular maximum conductance at 10 uM with 100 mV holding potential by patch-clamp electrophysiological method relative to control; type: cell-based; conditions: Oocyte, filed as activator
AD293 [15] = test: as §1; type: cell-based; conditions: filed as activator, time 120.0 sec, DDE = dose-dependent effect
Rattus norvegicus [16] = test: Inhibition of overactive bladder activity in spontaneously hypertensive rat assessed as reduction in voiding frequency at 50 mg/kg, po measured after 3 hrs relative to control; type: functional
[17] = Tmax in Sprague-Dawley rat at 10 mg/kg, po by LC-MS analysis; type: ADME, organism-based; conditions: in vivo
[18] = molecular target: Calcium-activated potassium channel subunit alpha-1 (Rattus norvegicus) (UniProt Q62976); test: Activation of rat Slo expressed in Xenopus laevis oocytes at 10 uM with 100 mV holding potential by patch-clamp electrophysiological method; type: cell-based; conditions: Oocyte, filed as activator
[19] = molecular target: Calcium-activated potassium channel subunit alpha-1 (Rattus norvegicus) (UniProt Q62976); test: Activation of rat Slo expressed in Xenopus laevis oocytes assessed as shortened channel opening 10 uM with 100 mV holding potential by patch-clamp electrophysiological method; type: cell-based; conditions: Oocyte, filed as activator
[20] = Cmax in Sprague-Dawley rat at 10 mg/kg, po by LC-MS analysis; type: ADME, organism-based; parameters: dose 10 mg/kg, route po; conditions: in vivo
[21] = Oral bioavailability in Sprague-Dawley rat at 10 mg/kg by LC-MS analysis; type: ADME, organism-based; conditions: in vivo
[22] = molecular target: Calcium-activated potassium channel subunit alpha-1 (Rattus norvegicus) (UniProt Q62976); test: Activation of rat Slo expressed in Xenopus laevis oocytes assessed as shift in voltage at half activation at 10 uM with 100 mV holding potential by patch-clamp electrophysiological method; type: cell-based; conditions: Oocyte, filed as activator
[23] = Half life in Sprague-Dawley rat at 5 mg/kg, iv by LC-MS analysis; type: ADME, organism-based; conditions: in vivo
[24] = Protein binding in human plasma at 5 uM measured after 4 hrs by LC-MS/MS analysis; type: ADME, cell-free; conditions: read-out: PPB
[25] = AUC (0 to 8 hrs) in Sprague-Dawley rat at 10 mg/kg, po by LC-MS analysis; type: ADME, organism-based; parameters: time < 8 hr, dose 10 mg/kg, route po; conditions: in vivo
[26] = Protein binding in rat plasma at 5 uM measured after 4 hrs by LC-MS/MS analysis; type: ADME, cell-free; conditions: read-out: PPB
[27] = AUC (infinity) in Sprague-Dawley rat at 5 mg/kg, iv by LC-MS analysis; type: ADME, organism-based; parameters: time infinity, dose 5 mg/kg, route iv; conditions: in vivo
[28] = Half life in Sprague-Dawley rat at 10 mg/kg, po by LC-MS analysis; type: ADME, organism-based; conditions: in vivo
[29] = molecular target: Calcium-activated potassium channel subunit alpha-1 (Rattus norvegicus) (UniProt Q62976); test: Activation of rat Slo expressed in Xenopus laevis oocytes assessed as delayed channel closing 10 uM with 100 mV holding potential by patch-clamp electrophysiological method; type: cell-based; conditions: Oocyte, filed as activator

Chain of Calcium-activated potassium channel subunit alpha-1 (Rattus norvegicus) (Q62976 whole entry): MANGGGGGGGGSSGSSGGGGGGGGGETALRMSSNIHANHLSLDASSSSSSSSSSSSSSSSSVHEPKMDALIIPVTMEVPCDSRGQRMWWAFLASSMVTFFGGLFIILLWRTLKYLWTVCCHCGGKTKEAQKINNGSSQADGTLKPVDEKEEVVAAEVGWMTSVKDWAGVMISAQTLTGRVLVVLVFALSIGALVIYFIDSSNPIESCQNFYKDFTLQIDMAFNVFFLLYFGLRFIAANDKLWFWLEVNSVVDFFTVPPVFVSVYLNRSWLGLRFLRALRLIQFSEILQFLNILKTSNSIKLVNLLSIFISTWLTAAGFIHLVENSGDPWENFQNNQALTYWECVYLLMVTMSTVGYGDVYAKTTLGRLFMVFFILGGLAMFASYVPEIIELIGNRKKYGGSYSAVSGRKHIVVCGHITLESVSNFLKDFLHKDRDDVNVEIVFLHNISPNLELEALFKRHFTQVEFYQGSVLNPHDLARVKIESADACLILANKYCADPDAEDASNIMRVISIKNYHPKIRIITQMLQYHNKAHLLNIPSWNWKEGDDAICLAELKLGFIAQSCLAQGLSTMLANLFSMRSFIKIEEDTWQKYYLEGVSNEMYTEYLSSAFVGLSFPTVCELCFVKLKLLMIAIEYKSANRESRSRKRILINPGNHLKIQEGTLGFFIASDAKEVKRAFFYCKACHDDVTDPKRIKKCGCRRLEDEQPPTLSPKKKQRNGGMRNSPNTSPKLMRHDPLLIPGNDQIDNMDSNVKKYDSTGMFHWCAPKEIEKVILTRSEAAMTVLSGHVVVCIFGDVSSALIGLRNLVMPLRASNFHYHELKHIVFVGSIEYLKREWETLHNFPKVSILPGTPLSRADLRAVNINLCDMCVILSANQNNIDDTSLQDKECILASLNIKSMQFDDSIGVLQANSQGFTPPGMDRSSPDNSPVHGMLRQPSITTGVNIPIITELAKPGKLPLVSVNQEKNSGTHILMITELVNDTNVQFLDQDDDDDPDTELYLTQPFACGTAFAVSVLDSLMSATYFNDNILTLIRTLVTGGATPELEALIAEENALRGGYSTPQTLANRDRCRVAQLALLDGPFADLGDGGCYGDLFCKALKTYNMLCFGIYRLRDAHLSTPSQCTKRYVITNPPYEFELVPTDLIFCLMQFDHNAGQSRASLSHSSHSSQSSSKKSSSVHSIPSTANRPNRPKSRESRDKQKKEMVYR

SMILES: Cc1ccc2c(=O)[nH]c3c(C(=O)Nc4ccccc4)sc(=S)n3c2c1
V0 (AD293 [3]): 0.23 s⁻¹
Activity (AD293 [4]): 1.06 RFU

SMILES: O=C(Nc1ccccc1)c1sc(=S)n2c1[nH]c(=O)c1ccc(Br)cc12
V0 (AD293 [3]): 0.56 s⁻¹
Activity (AD293 [4]): 1.25 RFU

SMILES: Cc1ccc2c(c1)c(=O)[nH]c1c(C(=O)Nc3ccccc3)sc(=S)n12
V0 (AD293 [3]): 0.32 s⁻¹
Activity (AD293 [4]): 1.16 RFU

SMILES: O=C(Nc1ccccc1)c1sc(=S)n2c1[nH]c(=O)c1ccccc12
V0 (AD293 [3]): 0.42 s⁻¹
Activity (AD293 [4]): 1.03 RFU

SMILES: Cc1ccc(NC(=O)c2sc(=S)n3c2[nH]c(=O)c2cc(Br)ccc23)cc1
V0 (AD293 [3]): 0.71 s⁻¹
Activity (AD293 [4]): 1.41 RFU

SMILES: O=C(Nc1ccccc1)c1sc(=S)n2c1[nH]c(=O)c1ccc(Cl)cc12
V0 (AD293 [3]): 0.84 s⁻¹
Activity (AD293 [4]): 1.56 RFU

SMILES: O=C(Nc1ccccc1)c1sc(=S)n2c1[nH]c(=O)c1cc(Cl)ccc12
V0 (AD293 [3]): 0.38 s⁻¹
Activity (AD293 [4]): 1.18 RFU

SMILES: NC(=O)c1sc(=S)n2c1[nH]c(=O)c1ccccc12
V0 (AD293 [3]): 0.32 s⁻¹
Activity (AD293 [4]): 0.96 RFU

SMILES: O=C(NCc1ccccc1)c1sc(=S)n2c1[nH]c(=O)c1ccccc12
V0 (AD293 [3]): 0.26 s⁻¹
Activity (AD293 [4]): 1.1 RFU

The next lines start with results.

EC50 [1]: 1.14 µM
remaining at 0.5 h, 1 µM [2]: 56%
SMILES: O=C(Nc1cccc(F)c1)c1sc(=S)n2c1[nH]c(=O)c1cc(Br)ccc12
V0 (AD293 [3]): 12.6 s⁻¹
Activity (AD293 [4]): 2.85 RFU

EC50 [1]: 6.6 µM
SMILES: COc1cccc(NC(=O)c2sc(=S)n3c2[nH]c(=O)c2cc(Br)ccc23)c1
V0 (AD293 [3]): 6 s⁻¹
Activity (AD293 [4]): 3.35 RFU

EC50 [1]: 12.3 µM
SMILES: O=C(Nc1ccccc1)c1sc(=S)n2c1[nH]c(=O)c1cc(Br)ccc12
V0 (AD293 [3]): 5.51 s⁻¹
Activity (AD293 [4]): 3.83 RFU

EC50 [1]: 3.82 µM
SMILES: O=C(Nc1cccc(OC(F)(F)F)c1)c1sc(=S)n2c1[nH]c(=O)c1cc(Br)ccc12
V0 (AD293 [3]): 14.8 s⁻¹
Activity (AD293 [4]): 4.37 RFU

EC50 [1]: 5.74 µM
SMILES: Cc1cccc(NC(=O)c2sc(=S)n3c2[nH]c(=O)c2cc(Br)ccc23)c1
V0 (AD293 [3]): 9.77 s⁻¹
Activity (AD293 [4]): 4.98 RFU

EC50 [1]: 4.6 µM
SMILES: Cc1ccccc1NC(=O)c1sc(=S)n2c1[nH]c(=O)c1cc(Br)ccc12
V0 (AD293 [3]): 9.4 s⁻¹
Activity (AD293 [4]): 3.68 RFU

EC50 [1]: 12.7 µM
SMILES: O=C(O)c1sc(=S)n2c1[nH]c(=O)c1ccccc12
V0 (AD293 [3]): 0.38 s⁻¹
Activity (AD293 [4]): 1.38 RFU

EC50 [1]: 11.2 µM
SMILES: O=C(Nc1cccc(O)c1)c1sc(=S)n2c1[nH]c(=O)c1cc(Br)ccc12
V0 (AD293 [3]): 4.03 s⁻¹
Activity (AD293 [4]): 4.88 RFU

Vd [5]: 1.83 L/kg
clearance [6]: 4.5 mL/min/kg
AUC [8]: 26.8 uM.hr/ml
fold change (FC) [9]: 1.5
AUC [10]: 17.2 uM.hr/ml
delta(V1/2) [11]: 7.5 mV
fold change (FC) [14]: 1.3
EC50 [1]: 2.89 µM
Tmax [17]: 6.67 h
Activity [18]: Active
remaining at 0.5 h, 1 µM [2]: 76%
Activity [19]: Active
Cmax [20]: 1190 ng/mL
bioavailability [21]: 25.4%
delta(V1/2) [22]: 42.6 mV
half-life [23]: 6.59 h
fraction unbound at 4 h, 5 µM [24]: < 0.03
AUC [25]: 13.64 uM.hr/ml
fraction unbound at 4 h, 5 µM [26]: < 0.03
AUC [27]: 30.63 uM.hr/ml
half-life [28]: 8.5 h
Activity [29]: Active
SMILES: O=C(Nc1cccc(C(F)(F)F)c1)c1sc(=S)n2c1[nH]c(=O)c1cc(Br)ccc12
Activity (AD293 [7]): Active
inhibition (Rattus norvegicus [12]): Active
Activity (AD293 [13]): Active
Activity (AD293 [15]): Dde
inhibition in vivo at 50 mg/kg (Rattus norvegicus [16]): 33%
V0 (AD293 [3]): 16.8 s⁻¹
Activity (AD293 [4]): 3.35 RFU

EC50 [1]: 17.3 µM
SMILES: O=C(Nc1cc(C(F)(F)F)cc(C(F)(F)F)c1)c1sc(=S)n2c1[nH]c(=O)c1cc(Br)ccc12
V0 (AD293 [3]): 2.08 s⁻¹
Activity (AD293 [4]): 2.28 RFU

EC50 [1]: 14.9 µM
SMILES: FC(F)(F)c1cc(NC(=S)Nc2ccc(Br)cc2-c2nnn[nH]2)cc(C(F)(F)F)c1
V0 (AD293 [3]): 1.63 s⁻¹
Activity (AD293 [4]): 1.86 RFU

EC50 [1]: 4.85 µM
SMILES: O=C(Nc1cccc(Cl)c1)c1sc(=S)n2c1[nH]c(=O)c1cc(Br)ccc12
V0 (AD293 [3]): 16.1 s⁻¹
Activity (AD293 [4]): 3.56 RFU
